{"source": "patent US9339471B2", "about": "“Long acting dual release product containing carbinoxamine and pseudoephedrine” (E5 PHARMA, LLC, priority 2007, dated 2016)", "key": {"[1]": {"assay": "Single dose bioavailability study in the non-fasted state, 4 mg immediate release carbinoxamine maleate tablet", "type": "in vivo", "parameters": "Plasma concentration of carbinoxamine: unit not given here", "conditions": "nonfasted; for AUC(0-t) / Cmax / MRT / Tmax / half-life / AUC: human, plasma, po, 4 mg; for AUC: read-out: AUC0-", "description": "A single dose bioavailability study was also undertaken in the non-fasted state using 4 mg immediate release carbinoxamine maleate tablets formulated in an immediate release format. Samples were taken over a forty eight hours period after administration of the drug with heparinized tubes. Breakfast was ingested thirty minutes before administration.\nFIG. 2 is a mean plasma concentration-time profile of carbinoxamine after administering the 4 mg carbinoxamine maleate immediate release tablet in the non-fasted state from time 0 to time 48 hours. Graph (A) is the linear ordinate; graph (B) is the log-linear ordinate. FIG. 3 is an overlay of mean plasma concentration-time profiles of carbinoxamine administered under nonfasted and fasted conditions from time 0 to 48 hours, as reported in Example 3. Graph (A) is an overlay in the linear ordinates for the two conditions; graph (B) is an overlay in the log-linear ordinates for the two conditions."}, "[2]": {"conditions": "cited from earlier work; for AUC(0-t): AUC0-6"}, "[3]": {"conditions": "4 mg retard capsule, single administration"}, "[4]": {"conditions": "4 mg retard capsule, successive administrations"}, "[5]": {"conditions": "Literature 2, Aqueous solution 4 mg"}, "[6]": {"conditions": "Literature 2, Retard capsule 4 mg"}, "[7]": {"conditions": "Literature 2, Retard capsule SS 4 mg, steady-state (q12 h)"}}, "note": "Like-named read-outs stand apart in the source and are kept apart here. Marks after values point to notes of the source that are not given here."}
{"compound": "CN(C)CCOC(c1ccc(Cl)cc1)c1ccccn1", "note": "(stereo not drawn) [carbinoxamine, 2-[(4-chlorophenyl)-2-pyridinylmethoxy]-N,N-dimethylethanamine (Z)-2-butenedioate (1:1)]", "values": [{"measurement": "AUC(0-t)", "setting": "[1]; Mean", "value": 212, "unit": "ng·h/mL"}, {"measurement": "Cmax", "setting": "[1]; Mean", "value": 12.6, "unit": "ng/mL"}, {"measurement": "MRT", "setting": "[1]; Mean", "value": 26.9, "unit": "h"}, {"measurement": "Tmax", "setting": "[1]; Mean", "value": 2.67, "unit": "h"}, {"measurement": "half-life", "setting": "[1]; Mean", "value": 19, "unit": "h"}, {"measurement": "AUC", "setting": "[1]; Mean", "value": 260, "unit": "ng·h/mL"}, {"measurement": "AUC(0-t)", "setting": "[1]; subject 101", "value": 175, "unit": "ng·h/mL"}, {"measurement": "Cmax", "setting": "[1]; subject 101", "value": 8.11, "unit": "ng/mL"}, {"measurement": "MRT", "setting": "[1]; subject 101", "value": 25.6, "unit": "h"}, {"measurement": "Tmax", "setting": "[1]; subject 101", "value": 4, "unit": "h"}, {"measurement": "half-life", "setting": "[1]; subject 101", "value": 17.1, "unit": "h"}, {"measurement": "AUC", "setting": "[1]; subject 101", "value": 206, "unit": "ng·h/mL"}, {"measurement": "AUC(0-t)", "setting": "[1]; subject 102", "value": 292, "unit": "ng·h/mL"}, {"measurement": "Cmax", "setting": "[1]; subject 102", "value": 18.9, "unit": "ng/mL"}, {"measurement": "MRT", "setting": "[1]; subject 102", "value": 31.7, "unit": "h"}, {"measurement": "Tmax", "setting": "[1]; subject 102", "value": 2, "unit": "h"}, {"measurement": "half-life", "setting": "[1]; subject 102", "value": 22.9, "unit": "h"}, {"measurement": "AUC", "setting": "[1]; subject 102", "value": 178, "unit": "ng·h/mL"}, {"measurement": "AUC(0-t)", "setting": "[1]; subject 103", "value": 170, "unit": "ng·h/mL"}, {"measurement": "Cmax", "setting": "[1]; subject 103", "value": 10.7, "unit": "ng/mL"}, {"measurement": "MRT", "setting": "[1]; subject 103", "value": 23.4, "unit": "h"}, {"measurement": "Tmax", "setting": "[1]; subject 103", "value": 2, "unit": "h"}, {"measurement": "half-life", "setting": "[1]; subject 103", "value": 16.9, "unit": "h"}, {"measurement": "AUC", "setting": "[1]; subject 103", "value": 196, "unit": "ng·h/mL"}, {"measurement": "Plasma concentration of carbinoxamine", "setting": "[1]; 0 h, subject 101T", "value": "blq"}, {"measurement": "Plasma concentration of carbinoxamine", "setting": "[1]; 0 h, subject 102T", "value": "blq"}, {"measurement": "Plasma concentration of carbinoxamine", "setting": "[1]; 0 h, subject 103T", "value": "blq"}, {"measurement": "Plasma concentration of carbinoxamine", "setting": "[1]; 0.5 h, T-Mean", "value": 1415.00}, {"measurement": "Plasma concentration of carbinoxamine", "setting": "[1]; 0.5 h, subject 101T", "value": 1190.29}, {"measurement": "Plasma concentration of carbinoxamine", "setting": "[1]; 0.5 h, subject 102T", "value": 1371.47}, {"measurement": "Plasma concentration of carbinoxamine", "setting": "[1]; 0.5 h, subject 103T", "value": 1683.25}, {"measurement": "Plasma concentration of carbinoxamine", "setting": "[1]; 1 h, T-Mean", "value": 9391.48}, {"measurement": "Plasma concentration of carbinoxamine", "setting": "[1]; 1 h, subject 101T", "value": 5017.55}, {"measurement": "Plasma concentration of carbinoxamine", "setting": "[1]; 1 h, subject 102T", "value": 15948.51}, {"measurement": "Plasma concentration of carbinoxamine", "setting": "[1]; 1 h, subject 103T", "value": 7208.39}, {"measurement": "Plasma concentration of carbinoxamine", "setting": "[1]; 2 h, T-Mean", "value": 12274.78}, {"measurement": "Plasma concentration of carbinoxamine", "setting": "[1]; 2 h, subject 101T", "value": 7279.95}, {"measurement": "Plasma concentration of carbinoxamine", "setting": "[1]; 2 h, subject 102T", "value": 18873.34}, {"measurement": "Plasma concentration of carbinoxamine", "setting": "[1]; 2 h, subject 103T", "value": 10671.05}, {"measurement": "Plasma concentration of carbinoxamine", "setting": "[1]; 3 h, T-Mean", "value": 10596.92}, {"measurement": "Plasma concentration of carbinoxamine", "setting": "[1]; 3 h, subject 101T", "value": 7409.87}, {"measurement": "Plasma concentration of carbinoxamine", "setting": "[1]; 3 h, subject 102T", "value": 14981.55}, {"measurement": "Plasma concentration of carbinoxamine", "setting": "[1]; 3 h, subject 103T", "value": 9399.33}, {"measurement": "Plasma concentration of carbinoxamine", "setting": "[1]; 4 h, T-Mean", "value": 9957.93}, {"measurement": "Plasma concentration of carbinoxamine", "setting": "[1]; 4 h, subject 101T", "value": 8113.91}, {"measurement": "Plasma concentration of carbinoxamine", "setting": "[1]; 4 h, subject 102T", "value": 12868.20}, {"measurement": "Plasma concentration of carbinoxamine", "setting": "[1]; 4 h, subject 103T", "value": 8891.67}, {"measurement": "Plasma concentration of carbinoxamine", "setting": "[1]; 5 h, T-Mean", "value": 9064.58}, {"measurement": "Plasma concentration of carbinoxamine", "setting": "[1]; 5 h, subject 101T", "value": 7450.78}, {"measurement": "Plasma concentration of carbinoxamine", "setting": "[1]; 5 h, subject 102T", "value": 11670.11}, {"measurement": "Plasma concentration of carbinoxamine", "setting": "[1]; 5 h, subject 103T", "value": 8072.86}, {"measurement": "Plasma concentration of carbinoxamine", "setting": "[1]; 6 h, T-Mean", "value": 8311.90}, {"measurement": "Plasma concentration of carbinoxamine", "setting": "[1]; 6 h, subject 101T", "value": 7053.79}, {"measurement": "Plasma concentration of carbinoxamine", "setting": "[1]; 6 h, subject 102T", "value": 10649.47}, {"measurement": "Plasma concentration of carbinoxamine", "setting": "[1]; 6 h, subject 103T", "value": 7232.44}, {"measurement": "Plasma concentration of carbinoxamine", "setting": "[1]; 8 h, T-Mean", "value": 7184.22}, {"measurement": "Plasma concentration of carbinoxamine", "setting": "[1]; 8 h, subject 101T", "value": 6458.92}, {"measurement": "Plasma concentration of carbinoxamine", "setting": "[1]; 8 h, subject 102T", "value": 8834.94}, {"measurement": "Plasma concentration of carbinoxamine", "setting": "[1]; 8 h, subject 103T", "value": 6258.79}, {"measurement": "Plasma concentration of carbinoxamine", "setting": "[1]; 12 h, T-Mean", "value": 5363.07}, {"measurement": "Plasma concentration of carbinoxamine", "setting": "[1]; 12 h, subject 101T", "value": 4676.58}, {"measurement": "Plasma concentration of carbinoxamine", "setting": "[1]; 12 h, subject 102T", "value": 7186.93}, {"measurement": "Plasma concentration of carbinoxamine", "setting": "[1]; 12 h, subject 103T", "value": 4225.70}, {"measurement": "Plasma concentration of carbinoxamine", "setting": "[1]; 24 h, T-Mean", "value": 3869.18}, {"measurement": "Plasma concentration of carbinoxamine", "setting": "[1]; 24 h, subject 101T", "value": 3297.38}, {"measurement": "Plasma concentration of carbinoxamine", "setting": "[1]; 24 h, subject 102T", "value": 5400.86}, {"measurement": "Plasma concentration of carbinoxamine", "setting": "[1]; 24 h, subject 103T", "value": 2909.31}, {"measurement": "Plasma concentration of carbinoxamine", "setting": "[1]; 36 h, T-Mean", "value": 2453.59}, {"measurement": "Plasma concentration of carbinoxamine", "setting": "[1]; 36 h, subject 101T", "value": 2197.69}, {"measurement": "Plasma concentration of carbinoxamine", "setting": "[1]; 36 h, subject 102T", "value": 3336.26}, {"measurement": "Plasma concentration of carbinoxamine", "setting": "[1]; 36 h, subject 103T", "value": 1826.88}, {"measurement": "Plasma concentration of carbinoxamine", "setting": "[1]; 48 h, T-Mean", "value": 1650.44}, {"measurement": "Plasma concentration of carbinoxamine", "setting": "[1]; 48 h, subject 101T", "value": 1249.68}, {"measurement": "Plasma concentration of carbinoxamine", "setting": "[1]; 48 h, subject 102T", "value": 2616.93}, {"measurement": "Plasma concentration of carbinoxamine", "setting": "[1]; 48 h, subject 103T", "value": 1084.70}, {"measurement": "Cmax", "setting": "[2]; [3]", "value": 4.5, "unit": "ng/mL"}, {"measurement": "Tmax", "setting": "[2]; [3]", "value": 6.2, "unit": "h"}, {"measurement": "half life", "setting": "[2]; [3]", "value": 30, "unit": "h"}, {"measurement": "Cmax", "setting": "[2]; [4]", "value": 13.5, "unit": "ng/mL"}, {"measurement": "Tmax", "setting": "[2]; [4]", "value": 4.8, "unit": "h"}, {"measurement": "half life", "setting": "[2]; [4]", "value": 22, "unit": "h"}, {"measurement": "AUC(0-t)", "setting": "[2]; [5]", "value": "64^c ng/ml * h"}, {"measurement": "Cmax", "setting": "[2]; [5]", "value": 6.5, "unit": "ng/mL"}, {"measurement": "T1/2", "setting": "[2]; [5]", "value": 15, "unit": "h"}, {"measurement": "Tmax", "setting": "[2]; [5]", "value": 2.6, "unit": "h"}, {"measurement": "AUC(0-t)", "setting": "[2]; [6]", "value": "57^c ng/ml * h"}, {"measurement": "Cmax", "setting": "[2]; [6]", "value": 4.5, "unit": "ng/mL"}, {"measurement": "T1/2", "setting": "[2]; [6]", "value": 30, "unit": "h"}, {"measurement": "Tmax", "setting": "[2]; [6]", "value": 6.2, "unit": "h"}, {"measurement": "AUC0-* ·", "setting": "[2]; [7]", "value": 125, "unit": "ng·h/mL"}, {"measurement": "Cmax", "setting": "[2]; [7]", "value": 13.5, "unit": "ng/mL"}, {"measurement": "T1/2", "setting": "[2]; [7]", "value": 22, "unit": "h"}, {"measurement": "Tmax", "setting": "[2]; [7]", "value": 4.8, "unit": "h"}]}
